Laboratory results published in EP2311457A1, “Pharmaceutical compositions for treating infections with drug resistant mycobacteria” (priority 2009, dated 2011).
Converted amounts (≈) assume the structure as drawn.

What follows are molecules tested on Mtb 09457/06 XDR (assay: Drug susceptibility testing, radiometric MIC determination (BACTEC 460TB)). Conditions: Mycobacterium tuberculosis, read-out: minimal inhibitory concentrations.
`Cc1ccc(C=NNc2nncc3ccccc23)nc1` [PH22-16, 5-methyl-pyridine-2-aldehyde-1'-phthalazinylhydrazone] was tested, and the MIC was less than 1 µg/mL. `Cc1ccc(C=NNc2ccc3ccccc3n2)nc1` [PH22-14, 5-methylpyridine-2-aldehyde-2'-quinolylhydrazone] gave an MIC of 0.5 µg/mL (≈ 1.91 µM). `Clc1ccc(NN=Cc2ccc(OCc3ccccc3)cn2)nn1` [PH22-51, 5-benzyloxypyridine-2-aldehyde-6'-chloro-3'-pyridazinylhydrazone] was tested, and the MIC was 1 µg/mL (≈ 2.94 µM). Work on `c1ccc(C(=NNc2nncc3ccccc23)c2ccccn2)cc1` [PH22-22, 2-benzoylpyridine-1'-phthalazinylhydrazone] yielded an MIC of 5 µg/mL (≈ 15.4 µM). Molecule `C(=NNc1ncnc2ccccc12)c1ccc(OCc2ccccc2)cn1` [PH22-52, 5-benzyloxypyridine-2-aldehyde-4'-quinazolinylhydrazone] has an MIC of 1 µg/mL (≈ 2.81 µM). `C(=NNc1ccccn1)c1ccc(OCc2ccccc2)cn1` [PH22-49, 5-benzyloxypyridine-2-aldehyde-2'-pyridylhydrazone] showed an MIC of 1 µg/mL (≈ 3.29 µM). In the case of `CCc1ccc(C=NNc2cc(OC)ncn2)nc1` [PH22-33, 5-ethylpyridine-2-aldehyde-6'-methoxy-4'-pyrimidylhydrazone], the MIC is reported as less than 0.125 µg/mL. In the case of `C(=NNc1nncc2ccccc12)c1ccc(OCc2ccccc2)cn1` [PH22-6, 5-benzyloxypyridine-2-aldehyde-1'-phthalazinylhydrazone], the MIC is reported as 1 µg/mL (≈ 2.81 µM). `Cc1cccc(NN=Cc2ccccn2)n1` [PH22-31, pyridine-2-aldehyde-6'-methyl-2'-pyridylhydrazone] was tested, and the MIC was 1 µg/mL (≈ 4.71 µM). Work on `c1ccc(C(=NNc2ccc3ccccc3n2)c2ccccn2)cc1` [PH22-15, 2-benzoylpyridine-2'-quinolylhydrazone] yielded an MIC of 0.25 µg/mL (≈ 0.771 µM).
